Experimental data published in US20250019369A1, “N-(4-aminocyclohexyl)pyrimidine-4-carboxamide derivatives as CD38 inhibitors” (Cerevance, Inc., priority 2021, published 2025).
Where a name gives a salt, the structure may show the parent alone. Read-outs that look alike come from different tables or passages of the source.

Columns and labels:
Recombinant mouse CD38 = Recombinant mouse CD38 (Mus musculus (Mouse), UniProt P56528); test: Mouse CD38 hydrolase assay (fluorescence, ε-NAD substrate); format: biochemical; conditions: recombinant mouse CD38 0.4 nM, 12 μM ε-NAD, 30 min preincubation at 25° C., pH 7.4
Chain of Recombinant mouse CD38 (P56528 whole entry): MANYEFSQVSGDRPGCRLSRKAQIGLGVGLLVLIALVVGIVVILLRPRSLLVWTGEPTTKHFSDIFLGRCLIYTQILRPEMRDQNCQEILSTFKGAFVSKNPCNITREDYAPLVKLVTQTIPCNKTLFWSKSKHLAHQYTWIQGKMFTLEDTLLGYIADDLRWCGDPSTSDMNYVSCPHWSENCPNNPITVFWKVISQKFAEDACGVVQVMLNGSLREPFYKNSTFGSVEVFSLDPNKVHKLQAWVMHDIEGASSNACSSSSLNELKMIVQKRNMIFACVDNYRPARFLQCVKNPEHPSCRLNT
Method: (§1) The ability of test compounds to inhibit mouse CD38 hydrolase activity was measured in a fluorescence-based assay using non-physiological NAD^+ substrate analogue 1,N^6-etheno NAD^+ (ε-NAD). Recombinant mouse CD38 (0.4 nM) was preincubated with test compounds in 384-well black microplates for 30 min at 25° C. in PBS (—Ca^2+/Mg^2+) containing 0.005% BSA (pH 7.4). CD38 hydrolase activity was initiated by addition of 12 μM ε-NAD, which yields the fluorescent product 1,N^6-etheno ADP-ribose. Formation of fluorescent product was followed using ClarioStar Plus (BMG) microplate reader by reading fluorescence (excitation λ=300 nm; emission λ=410 nm) at two time points, one immediately after substrate addition (t=0) and one at 6 min (t=6).
(§2) Data was analysed by subtracting the values detected at t=0 from t=6 to correct for variation in baseline fluorescence, and fluorescence values were converted to percent inhibition using the average of high signal (CD38 and ε-NAD) and low signal (CD38 and ε-NAD in the presence of a tool CD38 inhibitor) control wells. IC50 values were determined from a 10-point, half log concentration response curve with a four-parameter logistic equation.

Recombinant human CD38 = Recombinant human CD38 (Homo sapiens (Human), UniProt P28907); test: Human CD38 hydrolase assay (fluorescence, ε-NAD substrate); format: biochemical; conditions: recombinant human CD38 0.8 nM, 4 μM ε-NAD, 30 min preincubation at 25° C., pH 7.4
Chain of Recombinant human CD38 (P28907 whole entry): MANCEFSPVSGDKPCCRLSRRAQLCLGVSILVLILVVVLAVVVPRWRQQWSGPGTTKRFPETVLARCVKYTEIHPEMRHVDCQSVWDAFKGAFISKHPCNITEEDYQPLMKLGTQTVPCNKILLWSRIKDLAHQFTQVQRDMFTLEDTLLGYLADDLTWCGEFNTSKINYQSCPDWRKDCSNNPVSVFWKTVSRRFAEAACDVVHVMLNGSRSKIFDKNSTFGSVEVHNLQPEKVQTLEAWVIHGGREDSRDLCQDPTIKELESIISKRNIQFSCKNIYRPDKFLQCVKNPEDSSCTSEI
Method: as §1, with “inhibit human” for “inhibit mouse”, “Recombinant human” for “Recombinant mouse”, “CD38 (0.8” for “CD38 (0.4”, “of 4” for “of 12”, “at 10” for “at 6”, “min (t=10).” for “min (t=6).”
as §2, with “t=10” for “t=6”, “fluorescence. Fluorescence” for “fluorescence, and fluorescence”

[1] = PK brain permeability in C57BL/6 mice after single oral gavage; format: in vivo; conditions: 2 hours post dose; for concentration at 2 h: po, 10 mg/kg
Method: The distribution of compounds into the brain in vivo was determined in C57BL/6 mice following single oral (po) gavage administration.
Test compounds were formulated at 1 mg/mL in 0.5% HPMC E4 M, 0.2% Tween 80 in water to achieve solutions or homogenous suspensions suitable for po administration.
Formulations were administered to 3 male C57BL/6 mice at a volume of 10 mL/kg resulting in a dose level of 10 mg/kg. Blood samples were collected at 1 and 2 hours post dose into tubes containing K2EDTA as anticoagulant, processed to plasma and stored at −60° C. or lower until LC-MS/MS analysis. Brains were harvested 2 hours post dose, rinsed with saline, dried, weighed and homogenised under ice cold conditions. Brain homogenates were stored at −60° C. or lower until LC-MS/MS analysis.
Dose formulation concentrations were verified using a LC-UV or LC-MS/MS method. Test compound concentrations in plasma and brain homogenate were quantitatively determined using LC-MS/MS methods developed in individual matrices against calibration curves with QC samples included and acceptance criteria as per CRO SOPs. Concentrations in brain homogenate were corrected for the dilution factor used to prepare the homogenate to give concentrations in whole brain tissue.
Plasma and brain concentration versus time data were reported and plotted in excel. The brain to plasma ratio at 2 hours post dose was calculated for each animal using the following equation:
Brain:plasma=brain concentration (ng/g) at 2 h/plasma concentration (ng/mL) at 2 h
As only unbound test compound is available to exert an effect on the target, unbound plasma (Cp,u) and unbound brain (Cb,u) concentrations were calculated by correcting the total concentrations for the unbound fraction in plasma (fu,p) or brain (fu,b) determined from in vitro plasma protein or brain tissue binding assays using the following equations: […]
The unbound partitioning coefficient (Kpu,u) was then calculated based on the ratio of Cb,u to Cp,u using the following equation: […]
In these studies, mice were orally administrated a 10 mg/kg dose and sacrificed 2 hours post dose and tissue samples (brain homogenate and plasma) were analyzed subsequently as described above.

| SMILES | IC50 (Recombinant mouse CD38) [nM] | IC50 (Recombinant human CD38) [nM] | also measured |
| --- | --- | --- | --- |
| Cc1cc(C(=O)N[C@H]2CC[C@H](NCC(F)(F)F)CC2)nc(-c2cncn2C)n1 [Example 4, 6-methyl-2-(1-methyl-1H-imidazol-5-yl)-N-((1r,4r)-4-((2,2,2-trifluoroethyl)amino)cyclohexyl)pyrimidine-4-carboxamide] | ≤ 40 | – | – |
| Cc1cc(C(=O)N[C@H]2CC[C@H](NCC(F)(F)F)CC2)nc(-c2cncs2)n1 [Example 5, 6-methyl-2-(thiazol-5-yl)-N-((1r,4r)-4-((2,2,2-trifluoroethyl)amino)cyclohexyl)pyrimidine-4-carboxamide] | ≤ 40 | ≤ 1000 | – |
| CCc1cc(C(=O)N[C@H]2CC[C@H](NCC(F)(F)F)CC2)nc(-n2ccnc2)n1 [Example 6, 6-ethyl-2-(1H-imidazol-1-yl)-N-((1r,4r)-4-((2,2,2-trifluoroethyl)amino)cyclohexyl)pyrimidine-4-carboxamide] | ≤ 40 | ≤ 100 | – |
| Cc1cc(C(=O)N[C@H]2CC[C@H](N(C)CC(F)(F)F)CC2)nc(-n2ccnc2)n1 [Example 7, 2-(1H-imidazol-1-yl)-6-methyl-N-((1r,4r)-4-(methyl(2,2,2-trifluoroethyl)amino)cyclohexyl)pyrimidine-4-carboxamide] | – | ≤ 100 | – |
| Cc1cc(C(=O)N[C@H]2CC[C@H](NCC(F)F)CC2)nc(-c2cncs2)n1 [Example 8, N-((1r,4r)-4-((2,2-difluoroethyl)amino)cyclohexyl)-6-methyl-2-(thiazol-5-yl)pyrimidine-4-carboxamide] | – | ≤ 1000 | – |
| Cc1cc(C(=O)N[C@H]2CC[C@H](NCCF)CC2)nc(-n2ccnc2)n1 [Example 9, N-((1r,4r)-4-((2-fluoroethyl)amino)cyclohexyl)-2-(1H-imidazol-1-yl)-6-methyl-pyrimidine-4-carboxamide formate] | ≤ 40 | ≤ 1000 | – |
| Cc1cc(C(=O)N[C@H]2CC[C@@H](N3CCC(F)(F)C3)CC2)nc(-n2ccnc2)n1 [Example 11, N-((1s,4s)-4-(3,3-difluoropyrrolidin-1-yl)cyclohexyl)-2-(1H-imidazol-1-yl)-6-methyl-pyrimidine-4-carboxamide] | – | ≤ 10000 | – |
| Cc1cc(C(=O)N[C@H]2CC[C@H](N3CC[C@H](F)C3)CC2)nc(-n2ccnc2)n1 [Example 12, N-((1s,4r)-4-((S)-3-fluoropyrrolidin-1-yl)cyclohexyl)-2-(1H-imidazol-1-yl)-6-methyl-pyrimidine-4-carboxamide] | ≤ 40 | ≤ 100 | – |
| Cc1cc(C(=O)N[C@H]2CC[C@H](N3CC[C@@H](F)C3)CC2)nc(-n2ccnc2)n1 [Example 13, N-((1r,4r)-4-((R)-3-fluoropyrrolidin-1-yl)cyclohexyl)-2-(1H-imidazol-1-yl)-6-methyl-pyrimidine-4-carboxamide] | ≤ 40 | ≤ 100 | – |
| Cc1cc(C(=O)N[C@H]2CC[C@H](NCC(F)(F)F)CC2)nc(-c2cn[nH]c2)n1 [Example 14, 6-methyl-2-(1H-pyrazol-4-yl)-N-((1r,4r)-4-((2,2,2-trifluoroethyl)amino)cyclohexyl)pyrimidine-4-carboxamide] | ≤ 1000 | – | – |
| Cc1cc(C(=O)N[C@H]2CC[C@H](NCC(F)F)CC2)nc(-c2cn[nH]c2)n1 [Example 15, N-((1r,4r)-4-((2,2-difluoroethyl)amino)cyclohexyl)-6-methyl-2-(1H-pyrazol-4-yl)pyrimidine-4-carboxamide] | ≤ 1000 | ≤ 10000 | – |
| O=C(N[C@H]1CC[C@H](NCC(F)F)CC1)c1cc(C2CC2)cc(-n2ccnc2)n1 [Example 16, 4-cyclopropyl-N-((1r,4r)-4-((2,2-difluoroethyl)amino)cyclohexyl)-6-(1H-imidazol-1-yl)picolinamide] | ≤ 40 | ≤ 1000 | – |
| CCN[C@H]1CC[C@H](NC(=O)c2cc(C)nc(-n3ccnc3)n2)CC1 [Example 19, N-((1r,4r)-4-(ethylamino)cyclohexyl)-2-(1H-imidazol-1-yl)-6-methyl-pyrimidine-4-carboxamide Formate] | ≤ 40 | ≤ 100 | – |
| O=C(N[C@H]1CC[C@H](NCC(F)(F)F)CC1)c1cc(C2CC2)cc(-n2ccnc2)n1 [Example 20, 4-cyclopropyl-6-(1H-imidazol-1-yl)-N-((1r,4r)-4-((2,2,2-trifluoroethyl)amino)cyclohexyl)picolinamide] | ≤ 40 | ≤ 100 | – |
| Cc1cc(C(=O)N[C@H]2CC[C@H](N[C@@H](C)C(F)(F)F)CC2)nc(-n2ccnc2)n1 [Example 22, 2-(1H-imidazol-1-yl)-6-methyl-N-((1S,4r)-4-(((S)-1,1,1-trifluoropropan-2-yl)amino)cyclohexyl)pyrimidine-4-carboxamide] | ≤ 40 | ≤ 40 | – |
| Cc1cc(C(=O)N[C@H]2CC[C@H](N[C@H](C)C(F)(F)F)CC2)nc(-n2ccnc2)n1 [Example 23, 2-(1H-imidazol-1-yl)-6-methyl-N-((1R,4r)-4-(((R)-1,1,1-trifluoropropan-2-yl)amino)cyclohexyl)pyrimidine-4-carboxamide] | ≤ 40 | ≤ 40 | – |
| Cc1cc(C(=O)N[C@H]2CC[C@H](NCC(F)(F)F)CC2)nc(-n2cncc2C)n1 [Example 24, 6-methyl-2-(5-methyl-1H-imidazol-1-yl)-N-((1r,4r)-4-((2,2,2-trifluoroethyl)amino)cyclohexyl)pyrimidine-4-carboxamide] | ≤ 40 | ≤ 100 | – |
| Cc1cc(C(=O)N[C@H]2CC[C@H](CNCC(F)(F)F)CC2)nc(-n2ccnc2)n1 [Example 25, 2-(1H-imidazol-1-yl)-6-methyl-N-((1r,4r)-4-(((2,2,2-trifluoroethyl)amino)methyl)cyclohexyl)pyrimidine-4-carboxamide] | ≤ 40 | ≤ 40 | – |
| Cc1cc(C(=O)N[C@H]2CC[C@H](C(=O)NCC(F)(F)F)CC2)nc(-n2ccnc2)n1 [Example 26, 2-(1H-imidazol-1-yl)-6-methyl-N-((1r,4r)-4-((2,2,2-trifluoroethyl)carbamoyl)cyclohexyl)pyrimidine-4-carboxamide] | ≤ 40 | ≤ 40 | – |
| O=C(N[C@H]1CC[C@H](NCC(F)(F)F)CC1)c1nc(-n2ccnc2)nc2cc[nH]c12 [Example 29, 2-(1H-imidazol-1-yl)-N-((1r,4r)-4-((2,2,2-trifluoroethyl)amino)cyclohexyl)-5H-pyrrolo[3,2-d]pyrimidine-4-carboxamide, reference compound] | – | – | concentration at 2 h ([1]; male, C57BL/6, mouse, brain, read-out: total brain conc.): 1770 nM; concentration at 2 h ([1]; male, C57BL/6, mouse, brain, total corrected for unbound fraction in brain, read-out: free brain conc.): 224 nM; Kpu,u (unbound brain/plasma partition coefficient) at 2 h ([1]; male, C57BL/6, mouse, brain/plasma, oral 10 mg/kg, read-out: Kpu,u (unbound partitioning coefficient, Cb,u/Cp,u)): 0.18; concentration at 2 h ([1]; male, C57BL/6, mouse, plasma, read-out: total plasma conc.): 11100 nM; concentration at 2 h ([1]; male, C57BL/6, mouse, plasma, total corrected for unbound fraction in plasma, read-out: free plasma conc.): 1260 nM; brain exposure (in words) ([1]; oral 10 mg/kg, comment on Table 3, with lower Kpu,u values): much reduced brain exposure |
